# Measured values as given in article PMC10914734 (Signal Transduction and Targeted Therapy, 2024).
# Where two headings read alike, the source gives them in different places.
# System: SARS-CoV-2 XBB 1.16 variant
# Design: species or system K18-hACE2 mice
# Settings: mouse; for Decrease of lung viral load (viral RNA copies) compared to the vehicle group: in vivo
Structure (SMILES),Effect against SARS-CoV-2 XBB 1.16 variant in vivo (in words),Decrease of lung viral load (viral RNA copies) compared to the vehicle group (10 mg/kg),Decrease of lung viral load (viral RNA copies) compared to the vehicle group (20 mg/kg)
"O=C(NCc1ccccc1)C(=O)[C@H](C[C@@H]1CCCNC1=O)NC(=O)[C@H](Cc1ccc(F)cc1)NC(=O)c1cc2ccccc2o1 [14a, N-((S)-1-(((S)-4-(benzylamino)-3,4-dioxo-1-((S)-2-oxopiperidin-3-yl)butan-2-yl)amino)-3-(4-fluorophenyl)-1-oxopropan-2-yl)benzofuran-2-carboxamide]",potent effect,2.0 log10 units,2.6 log10 units
"O=C(NCc1ccccc1)C(=O)[C@H](C[C@@H]1CCCNC1=O)NC(=O)[C@H](CC1CCCCC1)NC(=O)c1cc2ccccc2o1 [14b, N-((S)-1-(((S)-4-(benzylamino)-3,4-dioxo-1-((S)-2-oxopiperidin-3-yl)butan-2-yl)amino)-3-cyclohexyl-1-oxopropan-2-yl)benzofuran-2-carboxamide]",potent effect,,
